{"source": "patent US20030100479A1", "about": "“Gene polymorphisms and response to treatment” (priority 2001, published 2003)", "test": "Dose-ranging clinical trial of GW320659 for weight loss: absolute change in body weight week 0 to week 24, by genotype", "assay_type": "in vivo, human", "details": "for Placebo adjusted mean absolute change in body weight / Placebo adjusted mean absolute change in weight: 15 mg dose group", "source_text": "The present inventors determined that the genetic polymorphisms identified herein are associated with differences in phenotypic response to treatment with the neuronal monoamine reuptake inhibitor GW320659. In the present study, the genotyped subjects had been recruited from a randomized placebo-controlled study of GW320659 for the treatment of obesity, in conjunction with a mildly hypocaloric diet and brief weight management guidance. Subjects had been randomized into one of five treatment groups: placebo or GW320659 at 2.5 mg/day, 5 mg/day, 10 mg/day, or 15 mg/day; outcome measurements included weight loss over baseline weight and changes in supine heart rate, supine diastolic blood pressure, and supine systolic blood pressure.\nThe primary outcome measurement was the individual's absolute change from baseline body weight (weight at week 0, randomization visit) to weight after 24 weeks of treatment. Genotypes associated with at least a 5.8 kg average weight loss over the 24 week study for subjects receiving 15 mg/day GW320659 are shown in Table 2. The average weight loss in the total (non-genotyped) clinical trial of GW320659 (at the 15 mg/day dosage) was 3.7 Kg (data not shown).\nUsing genotyping methods as are well known in the art, genetic data were obtained from approximately 200 of more than 500 human subjects enrolled in a dose-ranging efficacy and safety study of GW320659 for weight loss (main study group; a randomized, double-blind, placebo controlled, dose-ranging clinical trial); GW320659 was used in conjunction with a mildly hypocaloric diet and brief weight management guidance. Subjects were between the ages of 18-65 years, with a Body Mass Index (BMI) of 30-40, and were not on any psychotropic medications or other anti-obesity medications. Subjects were randomized into one of five treatment groups: placebo or GW320659 at 2.5 mg/day, 5 mg/day, 10 mg/day, or 15 mg/day (oral administration). In the main study group, for the GW320659 15 mg/day dosage, average weight loss was approximately 3.7 kg (108 subjects; data not shown).\nSubjects were assessed for various parameters, including absolute change in body weight from week 0 to week 24 of the study; supine heart rate, diastolic blood pressure and systolic blood pressure at multiple predetermined time-points across the study; and change in Food Craving Inventory (Total) score from week 0 to week 24.\nChange in body weight was analyzed using Analysis of Variance (ANOVA); body weight at Week 0 (randomization visit) was used as the baseline weight. The absolute change from baseline in body weight at week 24 was the dependent (response) variable. The primary independent variables were treatment group and genotype. Treatment by genotype interaction was assessed with the appropriate orthogonal trend (treatment) by genotype contrasts. […] The primary model is denoted as follows:\nRecursive partioning (HelixTree Software, May 1, 2001) was used to further examine the data. Due to sample size constraints, a combination of automatic and manual splits were used to best describe the underlying relationships between genotypes, treatment dose, and other demographic variables for each selected endpoint. Recursive partioning was applied to the following endpoints: change in weight, change in food craving (total score) inventory, change (Area Under the Curve (AUC) adjusted) in supine heart rate, and change (AUC adjusted) in supine diastolic blood pressure.\nThe multilocus genotypes from each individual were used to enumerate all possible haplotypes. These haplotypes were assigned starting frequencies. The haplotype frequencies were updated with frequencies calculated from all the possible haplotypes from each individual in the sample. This continued until the frequencies were constant from iteration to iteration.\nRegression-based models were used to relate inferred haplotype probabilities for each individual with the continuous response.", "data": [{"smiles": "C[C@@H]1CO[C@@](O)(c2cc(F)cc(F)c2)[C@H](C)N1.Cl", "note": "[GW320659, (2S,3S,5R)-2-(3,5-difluorophenyl)-3,5-dimethyl-2-morpholinol]", "values": [{"measurement": "Average weight loss, main study group", "setting": "15 mg/day oral, 108 subjects, data not shown", "result": "approximately 3.7 kg"}, {"measurement": "Average weight loss, total (non-genotyped) clinical trial", "setting": "15 mg/day, 24 weeks, not divided by genotype, data not shown", "result": 3.7, "unit": "kg"}, {"measurement": "Average weight loss", "setting": "5HTT Del-Ins (1,2) genotype, 15 mg/day dose", "result": -5.2, "unit": "kg"}, {"measurement": "Average Weight Loss (Kg)(range)", "setting": "5HTT G160A genotype 2,2, 15 mg/day, 24 weeks", "result": "−6.1 (−10.3, −3.2) Kg"}, {"measurement": "Average Weight Loss (Kg)(range)", "setting": "5HTT G769T genotype 1,1, 15 mg/day, 24 weeks", "result": "−6.0 (−9.5, −3.2) Kg"}, {"measurement": "Average Weight Loss (Kg)(range)", "setting": "DAT1 genotype 9,9, 15 mg/day, 24 weeks", "result": "−7.6 (−22.1, −1.1) Kg"}, {"measurement": "Average Weight Loss (Kg)(range)", "setting": "DAT1 genotype 10,9, 15 mg/day, 24 weeks", "result": "−6.6 (−20.4, 1.3) Kg"}, {"measurement": "Average Weight Loss (Kg)(range)", "setting": "NET1 C120A genotype 2,2, 15 mg/day, 24 weeks", "result": "−5.8 (−20.4, 1.3) Kg"}, {"measurement": "Absolute change in weight (largest for any sub-group)", "setting": "NET1 G155A 2,2 genotype, 15 mg dose, n=4", "result": -9.0, "unit": "kg"}, {"measurement": "Average Weight Loss (Kg)(range)", "setting": "NET1 G155A genotype 2,2, 15 mg/day, 24 weeks", "result": "−9.0 (−20.4, −3.3) Kg"}, {"measurement": "Mean absolute change in weight", "setting": "NET1 T342C 2,2 genotype, 15 mg dose, n=7", "result": -7.1, "unit": "kg"}, {"measurement": "Weight loss compared to subjects with alternate genotypes", "setting": "NET1 T342C (2,2) and without DRD2 C12121T (2,2), 10 mg/day or 15 mg/day", "result": "increased weight loss"}, {"measurement": "Placebo adjusted mean absolute change in body weight", "setting": "NET1 T342C genotype 1,1", "result": -2.8, "unit": "kg"}, {"measurement": "Placebo adjusted mean absolute change in body weight", "setting": "NET1 T342C genotype 1,2", "result": -3.3, "unit": "kg"}, {"measurement": "Placebo adjusted mean absolute change in body weight", "setting": "NET1 T342C genotype 2,2", "result": -7.3, "unit": "kg"}, {"measurement": "Average Weight Loss (Kg)(range)", "setting": "NET1 T342C genotype 2,2, 15 mg/day, 24 weeks", "result": "−7.1 (−13.7, 0) Kg"}, {"measurement": "Average Weight Loss (Kg)(range)", "setting": "NR1 G1001C genotype 1,2, 15 mg/day, 24 weeks", "result": "−6.0 (−13.7, −0.9) Kg"}, {"measurement": "Placebo adjusted mean absolute change in weight", "setting": "NR1 G6435A genotype 1,1", "result": -4.4, "unit": "kg"}, {"measurement": "Placebo adjusted mean absolute change in weight", "setting": "NR1 G6435A genotype 1,2", "result": -1.9, "unit": "kg"}, {"measurement": "Placebo adjusted mean absolute change in weight", "setting": "NR1 G6435A genotype 2,2, three placebo and four GW320659 subjects", "result": -10.3, "unit": "kg"}, {"measurement": "Average Weight Loss (Kg)(range)", "setting": "NR1 G6435A genotype 2,2, 15 mg/day, 24 weeks", "result": "−6.9 (−9.2, −3.3) Kg"}, {"measurement": "Weight Loss at 24 weeks, Mean", "setting": "haplotype 1,1 NET1G155A NET1T342C, All Ethnicities, 10-15 mg (Table 4)", "result": "−2.007"}, {"measurement": "Weight Loss at 24 weeks, Mean", "setting": "haplotype 1,1 NET1G155A NET1T342C, Caucasians, 10-15 mg (Table 5)", "result": "−1.739"}, {"measurement": "Weight Loss at 24 weeks, Mean", "setting": "haplotype 1,2 NET1G155A NET1T342C, All Ethnicities, 10-15 mg (Table 4)", "result": "−4.325"}, {"measurement": "Weight Loss at 24 weeks, Mean", "setting": "haplotype 1,2 NET1G155A NET1T342C, Caucasians, 10-15 mg (Table 5)", "result": "−4.416"}, {"measurement": "Weight Loss at 24 weeks, Mean", "setting": "haplotype 2,1 NET1G155A NET1T342C, All Ethnicities, 10-15 mg (Table 4)", "result": "−3.886"}, {"measurement": "Weight Loss at 24 weeks, Mean", "setting": "haplotype 2,1 NET1G155A NET1T342C, Caucasians, 10-15 mg (Table 5)", "result": "−2.9211"}, {"measurement": "Weight Loss at 24 weeks, Mean", "setting": "haplotype 2,2 NET1G155A NET1T342C, All Ethnicities, 10-15 mg (Table 4)", "result": "−9.99"}, {"measurement": "Weight Loss at 24 weeks, Mean", "setting": "haplotype 2,2 NET1G155A NET1T342C, Caucasians, 10-15 mg (Table 5)", "result": "−9.413"}, {"measurement": "Mean weight loss", "setting": "subgroup 2,2 for NET1T342C and/or NET1G155A and/or NR1G6435A, 10 mg/day+15 mg/day combined, 24 weeks", "result": 6.05, "unit": "kg"}, {"measurement": "Change in weight at Week 24", "setting": "subgroup 2/2 NET1T342C and/or 2/2 NET1G155A and/or 2/2 NR1G6435A, 10 mg/day+15 mg/day, 26 subjects", "result": -6.05, "unit": "kg"}, {"measurement": "Mean weight loss at 24 weeks", "setting": "subgroup 2/2 for NET1T342C and not 2/2 for DRD2C12121T", "result": "≥ 6", "unit": "kg"}, {"measurement": "Mean weight loss", "setting": "subgroup DAT1VNTR 10,9 or 9,9, 15 mg/day, 24 weeks", "result": 6.89, "unit": "kg"}]}]}
